Laboratory results reported in publication PMC4014704, “β-Boomerang Antimicrobial and Antiendotoxic Peptides: Lipidation and Disulfide Bond Effects on Activity and Structure” (Pharmaceuticals, 2014).
Converted amounts (≈) assume the structure as drawn. Peptide text beside a SMILES is read from it.

Assays:
[1] = system: FITC-LPS micelles; test: Dissociation of FITC-LPS; design: species or system E. coli 055:B5; conditions: 500 nM FITC-LPS, increasing peptide, excitation 480 nm, emission 515 nm
Description: Dissociation of FITC-LPS: LPS molecules form micellar aggregates in water. The competency of the peptides to dissociate LPS micelles were studied using FITC conjugated LPS. In this method, blank fluorescence of 500 nM of FITC-LPS was recorded followed by the addition of increasing concentrations of peptides. The excitation was set at 480 nm and emission at 500–550 nm.

[2] = Reverse phase HPLC retention time (hydrophobicity); format: physicochemical; design: unit not given beside the values; conditions: C18 column (300 Å pore size, 5 μm particle size), linear gradient acetonitrile/water, higher Rt taken as more hydrophobic
Excerpt: Materials: LPS of E. coli 0111:B4, FITC-LPS of E. coli 055:B5, acrylamide, NPN (1-N-phenylnaphthylamine) were purchased from Sigma (Saint Louis, MO, USA). All bacterial strains were obtained from the American Type Culture Collection (Manassas, VA, USA). Designed peptides were synthesized commercially by GL Biochem (Shanghai, China) and further purified by a reverse phase HPLC (Waters), using a C18 column (300 Å pore size, 5 μm particle size). The dimeric variants of β-boomerang lipopeptides were treated with 20% DMSO for 18 hours and the oxidized peptides were further purified by HPLC. A linear gradient of acetonitrile/water mixture was used for the purification and fractions eluting with higher purity were collected and freeze-dried.
(§1) In addition, incorporation of disulfide bridges in AMPs may stabilize conformations and enhance cationicity and hydrophobicity required for enhanced activity. […] Residue Ile10 was chosen for Cys replacement since this residue is located at the exposed face of the β-strand of the YI12WF structure (Figure 1).

[3] = system: LPS micelles; test: Dynamic light scattering of LPS micelles; design: species or system E. coli 0111:B4; conditions: DLS, 0.5 μM LPS, LPS:peptide 1:4; LPS alone 814 nm
Description: Dynamic light scattering measurements: LPS forms micelles of large sizes, which with the addition of increasing concentration of peptides, dissociates to smaller sizes. DLS measurements were made for 0.5 μM LPS and then with LPS: Peptide ratios of 1:2 and 1:4. The scattering was measured with Dynamic Light Scattering software provided with the instrument (Brookhaven Instruments Corp., Holtsville, NY, USA) and the scattering data was analyzed with CONTIN method.

[4] = system: E. coli cells; test: Zeta potential measurements; format: cell-based
Description: Zeta potential measurements: The zeta potential measurements were carried out on a Zetasizer Nano ZS (Malvern Instruments, Worcestershire, UK) equipped with a 633 nm He lasers. Mid-log phase grown bacterial cells were diluted to an OD600 of 0.2 and a basal measurement in the absence of peptides was acquired in disposable zeta cells with gold electrodes. Increasing concentrations of the designed peptides were then added to the cells and the measurements were made. A total of five measurements of 100 runs each were carried out for all dilutions.

[5] = system: outer membrane of E. coli cells; test: Outer membrane permeability assay (NPN dye); format: cell-based; conditions: E. coli OD600 0.5, 10 μM NPN
Description: Outer membrane permeability assay: Outer membrane of Gram bacteria acts as permeability barrier for hydrophobic antibacterial compounds. […] E. coli cells were grown to mid logarithmic phase and diluted to an OD600nm of 0.5 in 10 mM sodium phosphate buffer, pH 7.0. The excitation was set at 350 nm and emission at 390–450 nm. NPN was added to the diluted cells at the concentration of 10 μM and a basal fluorescence was recorded followed by the addition of increasing concentration of peptides.

[6] = aqueous solution for NMR
Excerpt: as §1
The solution conformations of YI13C, C4YI13C peptides were examined in free solution using two-dimensional ^1H-^1H NOESY and TOCSY experiments.

[7] = system: LPS micelles; test: Isothermal titration calorimetry; format: binding, E. coli 0111:B4; conditions: lack of saturation
Description: Isothermal titration calorimetry: Binding of designed peptides with LPS micelles was determined using isothermal titration calorimetry in VP-ITC micro calorimeter (Microcal Inc, Northampton, MA, USA). Peptides and LPS samples were dissolved in 10 mM phosphate buffer, pH 7.0 and filtered. LPS at a concentration of 10 μM was loaded into the sample cell and the reference cell was filled with the same buffer. The syringe was filled with 1mM peptide solution. Typically 30 injections of 3.5 μL of the peptides were made into the sample cell at 25 °C. Sample cell was stirred continuously at 300 rpm. Raw data were obtained and analyzed using single site binding model in Microcal Origin 5.0 software. Association constant (Ka) and enthalpy change (ΔH) were directly determined from ITC profiles. Dissociation constant was calculated from Kd = 1/Ka. ΔG and TΔS were estimated from the fundamental equations of thermodynamics, ΔG = −RTlnKa and TΔS = (ΔH − ΔG), respectively.

[8] = system: red blood cells; conditions: mouse RBC ~4% (v/v) in PBS pH 7.0, 1 h, OD540, 1% Triton-X = positive control
Description: Hemolytic assay: Blood was collected from healthy mice in a tube containing EDTA. Cells with EDTA were centrifuged at 800 g for 10 min, to remove the buffy plasma coat layer, and washed three times in PBS (35 mM phosphate buffer, 150 mM NaCl, pH 7.0). 50 μL of RBC solution was added to equal volume of two-fold dilution of the peptides in 96-well micro titer plates and incubated for one hour. The final erythrocyte concentration estimated to be ~4% (v/v). After one hour, the mixture was centrifuged and the release of hemoglobin in the supernatant was determined spectrophotometrically at OD540. Buffer and 1% Triton-X in the place of peptides used as negative control and positive control, respectively. The percentage of hemolysis was calculated using the following method: Percentage of hemolysis = (OD peptide − OD buffer)/(OD Triton-X-OD buffer) × 100

[9] = system: LPS (endotoxin); test: LPS neutralization assay (chromogenic LAL kit); format: biochemical
Description: LPS neutralization assay: LAL chromogenic kit (QCL 100 Cambrex, Walkersville, MD, USA) was used to determine endotoxin neutralization of the designed peptides following protocol of the vendor. LPS in Gram negative bacteria activates a proenzyme in limulus amoebocyte lysate (LAL). This activated enzyme in turn catalytically release a colored product pNA from the colorless substrate Ac-Ile-Glu-Ala-Arg-pNA which is detected spectrophotometrically at OD410. All peptides were dissolved in the pyrogen-free water supplied with the kit and pH was adjusted to 7.0 with 1N HCl or 1N NaOH (which is prepared in pyrogen-free water). The increasing concentrations of the peptides were incubated with three different concentrations of endotoxins, i.e., at 0.4, 0.8 and 1.0 endotoxin units (EU) in a total volume of 50 μL for 30 minutes at 37 °C. About 50 μL of LAL reagent was added to peptide-LPS complex and further incubated for 10 minutes followed by addition of 100 μL substrate. After incubation of six minutes for the reaction, the release of colored product was recorded at OD410. Water in the place of peptides served as negative control (blank) that is considered as 0% inhibition and percentage of LPS neutralization was calculated by: % of LPS neutralization = [(OD blank − OD peptide)/OD blank] × 100

[10] = system: B.subtilis (Lab strain); test: Antibacterial assay (MIC); format: cell-based; conditions: 10 mM phosphate buffer pH 6.8, 3 h 37 °C, streaked on Mueller-Hinton agar
Description: (§2) Antibacterial assay: The minimum inhibitory concentration (MIC) of the designed peptides was determined against four Gram-negative strains (E. coli, P. aeruginosa ATCC 27853, K. pneumoniae ATCC 13883, S. enterica ATCC 14028) and four Gram-positive strains (B. subtilis, S. aureus ATCC 25923, S. pyogenes ATCC 19615 and E. faecalis ATCC 29212). In brief, mid logarithmic phase of overnight grown bacterial cultures were obtained in LB broth and adjusted to OD600 0.2 in 10 mM phosphate buffer, pH 6.8. About 50 μL of these cells were added to equal volume of designed peptides at two-fold dilutions in 96-well sterile polypropylene plates followed by incubation for 3hrs at 37 °C. Aliquots of the above titrated wells were streaked onto Mueller-Hinton agar plates and the concentration at which no visible bacterial growth was observed considered as the MIC value of the peptide.

[11] = system: S.pyogenes (ATCC 19615); test: Antibacterial assay (MIC); format: cell-based; conditions: 10 mM phosphate buffer pH 6.8, 3 h 37 °C, streaked on Mueller-Hinton agar
Description: as §2

[12] = system: S.aureus (ATCC 25923); test: Antibacterial assay (MIC); format: cell-based; conditions: 10 mM phosphate buffer pH 6.8, 3 h 37 °C, streaked on Mueller-Hinton agar
Description: as §2

[13] = system: P.aeruginosa (ATCC 27853); test: Antibacterial assay (MIC); format: cell-based; conditions: 10 mM phosphate buffer pH 6.8, 3 h 37 °C, streaked on Mueller-Hinton agar
Description: as §2

[14] = system: E.faecalis (ATCC 29212); test: Antibacterial assay (MIC); format: cell-based; conditions: 10 mM phosphate buffer pH 6.8, 3 h 37 °C, streaked on Mueller-Hinton agar
Description: as §2

[15] = system: E.coli (Lab strain); test: Antibacterial assay (MIC); format: cell-based; conditions: 10 mM phosphate buffer pH 6.8, 3 h 37 °C, streaked on Mueller-Hinton agar, no visible growth
Description: as §2

[16] = system: S.enterica (ATCC 14028); test: Antibacterial assay (MIC); format: cell-based; conditions: 10 mM phosphate buffer pH 6.8, 3 h 37 °C, streaked on Mueller-Hinton agar
Description: as §2

[17] = system: K. pneumoniae (ATCC 13883); test: Antibacterial assay (MIC); format: cell-based; conditions: 10 mM phosphate buffer pH 6.8, 3 h 37 °C, streaked on Mueller-Hinton agar
Description: as §2

SMILES	FITC fluorescence intensity / dissociation of FITC-LPS (in words) [1]	Retention time (Rt) [2]	Diameter of LPS aggregates [3] [nm]	Change in zeta potential (in words) ([4]; increasing peptide concentrations, E. coli cells)	NPN fluorescence intensity with increasing peptide (in words) [5]	Solubility for NMR studies (in words) [6]	Interaction with LPS by ITC (in words) [7]	% of hemolysis at 50 μM peptide concentration [8] [%]	LPS neutralization ([9]; 0.4 EU endotoxin, 1.0 μM peptide, 30 min 37 °C, OD410)	LPS neutralization ([9]; at increased peptide concentration, different LPS concentrations (0.4, 0.8, 1.0 EU), dose dependent) [%]	Zeta potential of E. coli cells after peptide addition ([4]; 4 μM peptide, cells without peptide about −20.0 mV, OD600 0.2)	Minimum inhibitory concentration (MIC) [10] [µM]	Minimum inhibitory concentration (MIC) [11] [µM]	Minimum inhibitory concentration (MIC) [12] [µM]	Minimum inhibitory concentration (MIC) [13] [µM]	Minimum inhibitory concentration (MIC) [14] [µM]	Minimum inhibitory concentration (MIC) [15] [µM]	Minimum inhibitory concentration (MIC) [16] [µM]	Minimum inhibitory concentration (MIC) [17] [µM]
CCCCCCCC(=O)N[C@@H](Cc1ccc(O)cc1)C(=O)N[C@H](C(=O)N[C@@H](CC(C)C)C(=O)N[C@@H](C)C(=O)N[C@@H](CCCCN)C(=O)N[C@@H](CCCNC(=N)N)C(=O)N[C@@H](CCCCN)C(=O)N[C@@H](CCCNC(=N)N)C(=O)N[C@@H](CCCCN)C(=O)N[C@@H](C)C(=O)N[C@@H](CSSC[C@H](NC(=O)[C@H](C)NC(=O)[C@H](CCCCN)NC(=O)[C@H](CCCNC(=N)N)NC(=O)[C@H](CCCCN)NC(=O)[C@H](CCCNC(=N)N)NC(=O)[C@H](CCCCN)NC(=O)[C@H](C)NC(=O)[C@H](CC(C)C)NC(=O)[C@@H](NC(=O)[C@H](Cc1ccc(O)cc1)NC(=O)CCCCCCC)C(C)C)C(=O)N[C@@H](Cc1ccccc1)C(=O)N[C@H](C(N)=O)[C@@H](C)CC)C(=O)N[C@@H](Cc1ccccc1)C(=O)N[C@H](C(N)=O)[C@@H](C)CC)C(C)C [C8YI13CAA] (HELM PEPTIDE1{[CCCCCCCC(=O)[*:2]].Y.V.L.A.K.R.K.R.K.A.C.F.I.[am]}|PEPTIDE2{[CCCCCCCC(=O)[*:2]].Y.V.L.A.K.R.K.R.K.A.C.F.I.[am]}$PEPTIDE1,PEPTIDE2,12:R3-12:R3$$$V2.0; N-terminus and C-terminus assumed)	remained unchanged	32.38	630	did not show any detectable change in zeta potential	no marked increase in intensity	limited solubility	interacted weakly with LPS												
CCCCCCCC(=O)N[C@@H](Cc1ccc(O)cc1)C(=O)N[C@H](C(=O)N[C@@H](CC(C)C)C(=O)N[C@@H](Cc1c[nH]c2ccccc12)C(=O)N[C@@H](CCCCN)C(=O)N[C@@H](CCCNC(=N)N)C(=O)N[C@@H](CCCCN)C(=O)N[C@@H](CCCNC(=N)N)C(=O)N[C@@H](CCCCN)C(=O)N[C@@H](Cc1ccccc1)C(=O)N[C@@H](CSSC[C@H](NC(=O)[C@H](Cc1ccccc1)NC(=O)[C@H](CCCCN)NC(=O)[C@H](CCCNC(=N)N)NC(=O)[C@H](CCCCN)NC(=O)[C@H](CCCNC(=N)N)NC(=O)[C@H](CCCCN)NC(=O)[C@H](Cc1c[nH]c2ccccc12)NC(=O)[C@H](CC(C)C)NC(=O)[C@@H](NC(=O)[C@H](Cc1ccc(O)cc1)NC(=O)CCCCCCC)C(C)C)C(=O)N[C@@H](Cc1ccccc1)C(=O)N[C@H](C(N)=O)[C@@H](C)CC)C(=O)N[C@@H](Cc1ccccc1)C(=O)N[C@H](C(N)=O)[C@@H](C)CC)C(C)C [C8YI13C] (HELM PEPTIDE1{[CCCCCCCC(=O)[*:2]].Y.V.L.W.K.R.K.R.K.F.C.F.I.[am]}|PEPTIDE2{[CCCCCCCC(=O)[*:2]].Y.V.L.W.K.R.K.R.K.F.C.F.I.[am]}$PEPTIDE1,PEPTIDE2,12:R3-12:R3$$$V2.0)		37.40	385		continues to increase	limited solubility		21.5	around 60%	80	~+24.0 mV	5 (≈ 19.1 µg/mL)	50 (≈ 191 µg/mL)	5 (≈ 19.1 µg/mL)	5 (≈ 19.1 µg/mL)	4 (≈ 15.3 µg/mL)	3 (≈ 11.5 µg/mL)	50 (≈ 191 µg/mL)	12 (≈ 45.9 µg/mL)
